Test results taken from patent US11738008B2, “N-methyl-D-aspartic acid receptor modulators” (Emory University, priority 2018, dated 2023).

Assays:
[1] = target: T1, GluA2 (Homo sapiens, UniProt P42262); experiment: Off-target two-electrode voltage clamp assay, GluA2; assay type: cell-based; conditions: 10 μM, mean ± SEM
T1 construct: expressed in transfected cells
Method: (§1) The NIMH PDSP is Directed by Bryan L. Roth at the University of North Carolina at Chapel Hill and Project Officer Jamie Driscoll at NIMH, Bethesda Md., USA. Radioligand binding was measured in the presence of 10 μM 1180-420 and 1180-447. […] For experimental details please refer to the PDSP web site https://pdsp.unc.edu/ims/investigator/web/. Both 1180-420 and 1180-447 were also tested at AMPA, nicotinic acetylcholine, serotonin, GABA, and glycine ion channels using a two-electrode voltage clamp assay.

[2] = target: T2, α4β2-nACh (Homo sapiens, UniProt P17787+P43681); experiment: Off-target two-electrode voltage clamp assay, α4β2-nACh; assay type: cell-based; conditions: 10 μM, mean ± SEM
T2 construct: expressed in transfected cells
Method: as §1

[3] = target: T3, 5-HT1B (Homo sapiens, UniProt P28222); experiment: NIMH PDSP radioligand binding, 5-HT1B; conditions: read-out: Radioligand binding in 10 μM compound (% control)
T3 construct: NIMH PDSP (assay provider)
Method: as §1
(§2) Receptor binding profiles of compound 1180-447 were generously provided by the National Institute of Mental Health's Psychoactive Drug Screening Program, Contract # HHSN-271-2013-00017-C(NIMH PDSP). The NIMH PDSP is directed by Bryan L. Roth at the University of North Carolina at Chapel Hill and Project Officer Jamie Driscoll at NIMH, Bethesda Md., USA. Radioligand binding was measured in the presence of 10 μM 1180-447. […] For experimental details please refer to the PDSP web site https://pdsp.unc.edu/ims/investigator/web/.
(§3) The NIMH PDSP is Directed by Bryan L. Roth at the University of North Carolina at Chapel Hill and Project Officer Jamie Driscoll at NIMH, Bethesda Md., USA. Radioligand binding was measured in the presence of 10 μM 1180-420. […] For experimental details please refer to the PDSP web site https://pdsp.unc.edu/ims/investigator/web/.

[4] = target: T4, 5-HT1D (Homo sapiens, UniProt P28221); experiment: NIMH PDSP radioligand binding, 5-HT1D; conditions: read-out: Radioligand binding in 10 μM compound (% control)
T4 construct: NIMH PDSP (assay provider)
Method: as §1, §2, §3

[5] = target: T5, 5-HT2C (Homo sapiens, UniProt P28335); experiment: NIMH PDSP radioligand binding, 5-HT2C; conditions: for remaining activity at 10 µM: read-out: Radioligand binding in 10 μM compound (% control)
T5 construct: NIMH PDSP (assay provider)
T5 sequence (P28335 33-458): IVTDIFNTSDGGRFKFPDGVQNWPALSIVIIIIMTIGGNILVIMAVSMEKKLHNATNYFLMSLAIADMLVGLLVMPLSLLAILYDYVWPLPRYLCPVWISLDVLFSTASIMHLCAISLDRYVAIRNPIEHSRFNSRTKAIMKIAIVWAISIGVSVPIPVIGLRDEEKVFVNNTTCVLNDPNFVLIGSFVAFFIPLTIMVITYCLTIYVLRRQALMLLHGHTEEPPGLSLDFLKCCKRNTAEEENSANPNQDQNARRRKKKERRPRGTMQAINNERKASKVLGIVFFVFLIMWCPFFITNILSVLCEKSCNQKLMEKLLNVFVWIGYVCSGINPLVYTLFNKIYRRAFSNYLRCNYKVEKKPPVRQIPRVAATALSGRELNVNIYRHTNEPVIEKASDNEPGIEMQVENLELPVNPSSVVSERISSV
Method: as §1, §2, §3

[6] = target: T6, 5-HT3 (Homo sapiens, UniProt P46098); experiment: NIMH PDSP radioligand binding, 5-HT3; conditions: read-out: Radioligand binding in 10 μM compound (% control)
T6 construct: NIMH PDSP (assay provider)
Method: as §1, §2, §3

[7] = target: T7, 5-HT5A (Homo sapiens, UniProt P47898); experiment: NIMH PDSP radioligand binding, 5-HT5A; conditions: read-out: Radioligand binding in 10 μM compound (% control)
T7 construct: NIMH PDSP (assay provider)
Method: as §1, §2, §3

[8] = target: T8, 5-HT6 (Homo sapiens, UniProt P50406); experiment: NIMH PDSP radioligand binding, 5-HT6; conditions: read-out: Radioligand binding in 10 μM compound (% control)
T8 construct: NIMH PDSP (assay provider)
Method: as §1, §2, §3

[9] = target: T9, 5-HT7 (Homo sapiens, UniProt P34969); experiment: NIMH PDSP radioligand binding, 5-HT7; conditions: read-out: Radioligand binding in 10 μM compound (% control)
T9 construct: NIMH PDSP (assay provider)
Method: as §1, §2, §3

[10] = target: T10, D2 (Homo sapiens, UniProt P14416); experiment: NIMH PDSP radioligand binding, D2; conditions: read-out: Radioligand binding in 10 μM compound (% control)
T10 construct: NIMH PDSP (assay provider)
Method: as §1, §2, §3

[11] = target: T11, D4 (Homo sapiens, UniProt P21917); experiment: NIMH PDSP radioligand binding, D4; conditions: read-out: Radioligand binding in 10 μM compound (% control)
T11 construct: NIMH PDSP (assay provider)
Method: as §1, §2, §3

[12] = target: T12, D5 (Homo sapiens, UniProt P21918); experiment: NIMH PDSP radioligand binding, D5; conditions: for remaining activity at 10 µM: read-out: Radioligand binding in 10 μM compound (% control)
T12 construct: NIMH PDSP (assay provider)
Method: as §1, §2, §3

[13] = target: norepinephrine transporter (Homo sapiens, UniProt P23975); experiment: NIMH PDSP radioligand binding, norepinephrine transporter; conditions: read-out: Radioligand binding in 10 μM compound (% control)
Method: as §1, §2, §3

[14] = target: δ-opioid receptor (Homo sapiens, UniProt P41143); experiment: NIMH PDSP radioligand binding, δ-opioid receptor; conditions: read-out: Radioligand binding in 10 μM compound (% control)
Method: as §1, §2, §3

[15] = target: κ-opioid receptor (Homo sapiens, UniProt P41145); experiment: NIMH PDSP radioligand binding, κ-opioid receptor; conditions: for remaining activity at 10 µM: read-out: Radioligand binding in 10 μM compound (% control); for Ki: read-out: pKi values from non-linear regression of radioligand competition binding isotherms (converted)
Method: as §1, §2, §3

[16] = system: GABAA; experiment: NIMH PDSP radioligand binding, GABAA
Method: as §1, §2, §3

[17] = target: H1 (Homo sapiens, UniProt P35367); experiment: NIMH PDSP radioligand binding, H1; conditions: read-out: Radioligand binding in 10 μM compound (% control)
Method: as §1, §2, §3

[18] = target: α1B (Homo sapiens, UniProt P35368); experiment: NIMH PDSP radioligand binding, α1B; conditions: read-out: Radioligand binding in 10 μM compound (% control)
Method: as §1, §2, §3

[19] = target: α1D (Homo sapiens, UniProt P25100); experiment: NIMH PDSP radioligand binding, α1D; conditions: read-out: Radioligand binding in 10 μM compound (% control)
Method: as §1, §2, §3

[20] = target: α2A (Homo sapiens, UniProt P08913); experiment: NIMH PDSP radioligand binding, α2A; conditions: read-out: Radioligand binding in 10 μM compound (% control)
Method: as §1, §2, §3

[21] = target: α2C (Homo sapiens, UniProt P18825); experiment: NIMH PDSP radioligand binding, α2C; conditions: read-out: Radioligand binding in 10 μM compound (% control)
Method: as §1, §2, §3

[22] = target: β3 (Homo sapiens, UniProt P13945); experiment: NIMH PDSP radioligand binding, β3; conditions: read-out: Radioligand binding in 10 μM compound (% control)
Method: as §1, §2, §3

[23] = target: M1 (Homo sapiens, UniProt P11229); experiment: NIMH PDSP radioligand binding, M1; conditions: read-out: Radioligand binding in 10 μM compound (% control)
Method: as §1, §2, §3

[24] = target: M5 (Homo sapiens, UniProt P08912); experiment: NIMH PDSP radioligand binding, M5; conditions: read-out: Radioligand binding in 10 μM compound (% control)
Method: as §1, §2, §3

[25] = target: hERG (Homo sapiens, UniProt Q12809); experiment: NIMH PDSP hERG binding
Method: as §1, §2, §3

[26] = target: σ1 (Homo sapiens, UniProt Q99720); experiment: NIMH PDSP radioligand binding, σ1; conditions: read-out: Radioligand binding in 10 μM compound (% control)
Method: as §1, §2, §3

[27] = target: σ2 (Homo sapiens, UniProt Q5BJF2); experiment: NIMH PDSP radioligand binding, σ2; conditions: for remaining activity at 10 µM: read-out: Radioligand binding in 10 μM compound (% control); for Ki: read-out: pKi values from non-linear regression of radioligand competition binding isotherms (converted)
Method: as §1, §2, §3

[28] = system: CNS receptors; experiment: Off-target profile, NIMH PDSP CNS receptors (panel summary); assay type: binding; conditions: 10 μM
Method: as §1, §2, §3

[29] = read-out: pKi values from non-linear regression of radioligand competition binding isotherms (converted)

Chain of κ-opioid receptor (P41145 whole entry): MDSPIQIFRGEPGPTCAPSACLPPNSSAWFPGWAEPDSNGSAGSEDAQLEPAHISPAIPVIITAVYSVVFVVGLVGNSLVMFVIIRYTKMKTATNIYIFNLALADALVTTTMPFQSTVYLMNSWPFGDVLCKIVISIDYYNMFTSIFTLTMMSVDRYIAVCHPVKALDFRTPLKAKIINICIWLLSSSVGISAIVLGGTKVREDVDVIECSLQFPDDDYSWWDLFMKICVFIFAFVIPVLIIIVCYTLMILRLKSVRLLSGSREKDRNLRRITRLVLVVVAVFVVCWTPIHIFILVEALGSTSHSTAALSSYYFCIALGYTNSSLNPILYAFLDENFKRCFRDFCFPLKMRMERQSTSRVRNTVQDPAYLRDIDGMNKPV
T12 sequence (P21918 whole entry): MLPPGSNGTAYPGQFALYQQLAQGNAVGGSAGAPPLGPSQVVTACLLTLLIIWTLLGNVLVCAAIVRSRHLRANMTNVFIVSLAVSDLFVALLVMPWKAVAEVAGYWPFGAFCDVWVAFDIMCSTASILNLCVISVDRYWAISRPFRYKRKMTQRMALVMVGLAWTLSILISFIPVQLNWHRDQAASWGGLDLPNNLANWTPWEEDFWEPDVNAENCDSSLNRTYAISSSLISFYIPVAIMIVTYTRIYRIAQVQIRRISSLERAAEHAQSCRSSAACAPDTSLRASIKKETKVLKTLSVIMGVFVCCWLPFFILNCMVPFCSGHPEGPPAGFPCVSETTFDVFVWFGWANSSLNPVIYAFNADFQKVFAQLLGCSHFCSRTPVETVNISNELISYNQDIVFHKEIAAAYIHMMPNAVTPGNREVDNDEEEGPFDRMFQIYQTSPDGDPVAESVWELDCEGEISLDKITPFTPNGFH
Chain of σ2 (Q5BJF2 whole entry): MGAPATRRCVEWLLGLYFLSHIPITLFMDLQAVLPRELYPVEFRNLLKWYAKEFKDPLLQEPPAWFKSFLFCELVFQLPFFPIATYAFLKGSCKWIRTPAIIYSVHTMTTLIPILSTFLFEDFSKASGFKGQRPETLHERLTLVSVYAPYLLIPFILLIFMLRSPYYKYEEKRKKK
T9 sequence (P34969 whole entry, species assumed): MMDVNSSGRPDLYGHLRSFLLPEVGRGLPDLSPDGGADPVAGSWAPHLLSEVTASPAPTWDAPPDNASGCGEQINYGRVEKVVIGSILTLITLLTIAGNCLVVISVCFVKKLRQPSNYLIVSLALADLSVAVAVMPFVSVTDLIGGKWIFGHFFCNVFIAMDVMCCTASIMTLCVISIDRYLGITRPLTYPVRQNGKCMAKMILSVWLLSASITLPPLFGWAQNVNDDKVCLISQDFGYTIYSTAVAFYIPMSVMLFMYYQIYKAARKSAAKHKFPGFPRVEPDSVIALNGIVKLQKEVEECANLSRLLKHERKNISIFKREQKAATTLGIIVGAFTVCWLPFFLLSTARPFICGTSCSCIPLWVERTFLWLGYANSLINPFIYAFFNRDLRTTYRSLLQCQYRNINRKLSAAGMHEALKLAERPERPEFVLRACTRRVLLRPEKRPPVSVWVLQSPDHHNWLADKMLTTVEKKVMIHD
Chain of α1B (P35368 whole entry): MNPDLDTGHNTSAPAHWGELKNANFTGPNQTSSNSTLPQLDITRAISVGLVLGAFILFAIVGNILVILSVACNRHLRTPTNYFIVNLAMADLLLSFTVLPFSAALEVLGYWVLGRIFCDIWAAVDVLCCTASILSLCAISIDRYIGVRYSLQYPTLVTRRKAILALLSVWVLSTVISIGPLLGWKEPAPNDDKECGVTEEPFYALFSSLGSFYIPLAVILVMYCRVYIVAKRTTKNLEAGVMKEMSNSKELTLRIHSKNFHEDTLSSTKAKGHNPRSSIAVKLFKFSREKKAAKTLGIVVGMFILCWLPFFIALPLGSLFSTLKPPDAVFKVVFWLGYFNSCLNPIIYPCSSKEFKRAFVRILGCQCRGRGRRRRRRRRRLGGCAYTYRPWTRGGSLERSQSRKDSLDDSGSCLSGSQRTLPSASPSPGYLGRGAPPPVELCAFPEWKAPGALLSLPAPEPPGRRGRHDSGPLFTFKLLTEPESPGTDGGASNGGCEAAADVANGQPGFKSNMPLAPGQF
Chain of α1D (P25100 whole entry): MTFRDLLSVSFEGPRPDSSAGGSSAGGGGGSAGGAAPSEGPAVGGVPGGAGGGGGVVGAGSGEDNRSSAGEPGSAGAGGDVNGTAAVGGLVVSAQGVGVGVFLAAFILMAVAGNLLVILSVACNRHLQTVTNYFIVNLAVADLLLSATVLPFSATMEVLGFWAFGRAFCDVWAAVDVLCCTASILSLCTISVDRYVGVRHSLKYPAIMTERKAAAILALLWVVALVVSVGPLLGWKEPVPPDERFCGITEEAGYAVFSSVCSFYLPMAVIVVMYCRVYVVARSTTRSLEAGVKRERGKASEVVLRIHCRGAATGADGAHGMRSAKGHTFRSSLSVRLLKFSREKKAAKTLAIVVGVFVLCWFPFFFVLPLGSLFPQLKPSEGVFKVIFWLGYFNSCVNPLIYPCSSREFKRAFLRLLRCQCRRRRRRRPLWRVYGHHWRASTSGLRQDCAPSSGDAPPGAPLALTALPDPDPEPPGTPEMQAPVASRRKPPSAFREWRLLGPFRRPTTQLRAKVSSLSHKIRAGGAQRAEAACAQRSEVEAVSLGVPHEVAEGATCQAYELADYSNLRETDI
Chain of M5 (P08912 whole entry): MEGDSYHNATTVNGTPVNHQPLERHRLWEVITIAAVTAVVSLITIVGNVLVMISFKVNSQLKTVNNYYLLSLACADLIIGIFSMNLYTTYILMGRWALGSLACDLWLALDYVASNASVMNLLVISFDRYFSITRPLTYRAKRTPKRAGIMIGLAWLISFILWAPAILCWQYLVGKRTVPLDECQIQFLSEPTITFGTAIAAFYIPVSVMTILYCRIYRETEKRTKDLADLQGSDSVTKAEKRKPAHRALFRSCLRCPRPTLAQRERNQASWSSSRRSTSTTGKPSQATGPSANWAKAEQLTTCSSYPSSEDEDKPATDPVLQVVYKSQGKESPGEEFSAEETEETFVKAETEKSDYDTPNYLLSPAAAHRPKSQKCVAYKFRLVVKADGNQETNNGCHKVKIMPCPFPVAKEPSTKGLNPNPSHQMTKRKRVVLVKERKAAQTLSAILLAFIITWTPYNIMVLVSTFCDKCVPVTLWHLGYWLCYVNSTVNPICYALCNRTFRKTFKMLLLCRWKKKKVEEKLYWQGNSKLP
T8 sequence (P50406 whole entry, species assumed): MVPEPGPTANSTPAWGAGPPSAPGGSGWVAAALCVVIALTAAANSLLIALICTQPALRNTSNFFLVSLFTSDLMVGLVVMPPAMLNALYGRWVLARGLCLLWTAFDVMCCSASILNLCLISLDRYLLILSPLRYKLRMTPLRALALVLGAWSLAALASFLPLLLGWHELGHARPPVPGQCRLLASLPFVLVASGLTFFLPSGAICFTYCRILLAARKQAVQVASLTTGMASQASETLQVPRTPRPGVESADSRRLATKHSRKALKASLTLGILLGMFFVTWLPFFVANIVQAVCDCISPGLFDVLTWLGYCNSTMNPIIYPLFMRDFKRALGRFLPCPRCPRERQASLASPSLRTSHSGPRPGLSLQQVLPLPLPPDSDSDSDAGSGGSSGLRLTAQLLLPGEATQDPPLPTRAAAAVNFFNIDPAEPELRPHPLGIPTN
T1 sequence (P42262 25-883, species assumed): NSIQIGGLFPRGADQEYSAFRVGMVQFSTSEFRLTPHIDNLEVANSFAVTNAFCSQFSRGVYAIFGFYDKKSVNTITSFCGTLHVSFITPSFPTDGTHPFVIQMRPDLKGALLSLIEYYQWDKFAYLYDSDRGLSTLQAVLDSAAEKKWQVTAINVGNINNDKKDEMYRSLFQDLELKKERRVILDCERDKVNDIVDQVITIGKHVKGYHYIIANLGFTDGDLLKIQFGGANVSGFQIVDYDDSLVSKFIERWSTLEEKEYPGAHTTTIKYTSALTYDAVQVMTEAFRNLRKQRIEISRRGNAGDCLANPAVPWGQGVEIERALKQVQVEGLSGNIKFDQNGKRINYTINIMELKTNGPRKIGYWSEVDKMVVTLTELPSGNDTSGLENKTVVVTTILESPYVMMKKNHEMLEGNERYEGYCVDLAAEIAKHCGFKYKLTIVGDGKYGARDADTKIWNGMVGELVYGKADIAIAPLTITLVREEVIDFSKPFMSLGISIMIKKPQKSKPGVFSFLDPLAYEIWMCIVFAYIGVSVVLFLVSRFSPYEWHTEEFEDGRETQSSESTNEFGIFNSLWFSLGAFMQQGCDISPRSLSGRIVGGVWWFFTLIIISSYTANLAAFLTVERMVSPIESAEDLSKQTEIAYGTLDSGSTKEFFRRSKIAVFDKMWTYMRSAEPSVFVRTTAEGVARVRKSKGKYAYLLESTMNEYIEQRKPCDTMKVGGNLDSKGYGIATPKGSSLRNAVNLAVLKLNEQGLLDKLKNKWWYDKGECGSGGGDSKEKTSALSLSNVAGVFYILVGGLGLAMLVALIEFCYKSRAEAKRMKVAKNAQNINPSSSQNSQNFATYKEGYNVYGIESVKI
Chain of α2C (P18825 whole entry): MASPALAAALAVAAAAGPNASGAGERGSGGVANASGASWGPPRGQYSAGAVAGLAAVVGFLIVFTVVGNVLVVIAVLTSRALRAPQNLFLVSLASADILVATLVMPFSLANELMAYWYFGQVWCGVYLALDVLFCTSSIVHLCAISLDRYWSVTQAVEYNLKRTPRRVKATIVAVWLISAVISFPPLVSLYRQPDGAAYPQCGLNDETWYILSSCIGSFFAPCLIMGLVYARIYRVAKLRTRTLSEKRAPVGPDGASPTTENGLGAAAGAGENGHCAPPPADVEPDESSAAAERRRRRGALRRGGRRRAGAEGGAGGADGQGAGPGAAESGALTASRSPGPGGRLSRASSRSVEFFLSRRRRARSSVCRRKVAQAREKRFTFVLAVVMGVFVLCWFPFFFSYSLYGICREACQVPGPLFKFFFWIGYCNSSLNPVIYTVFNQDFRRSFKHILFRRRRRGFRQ

For COc1ccc(OCC2c3cccn3CC(=O)N2Cc2cccc(C(F)(F)F)c2)cc1 (racemic) [1180-447, 1-((4-Methoxyphenoxy)methyl)-2-(3-(trifluoromethyl)benzyl)-1,2-dihydropyrrolo[1,2-a]pyrazin-3(4H)-one], the “% control response” value [1] was 99.3 ± 2.9 % control response, the “% control response” value [2] was 52.7 ± 6.3 % control response and the remaining activity at 10 µM [3] was 109%. For the same compound, the remaining activity at 10 µM [4] was 115%, the remaining activity at 10 µM [5] was 32% and the Ki [5, 29] was > 10000 nM. It also gave a remaining activity at 10 µM [6] of 68%, a remaining activity at 10 µM [7] of 92% and a remaining activity at 10 µM [8] of 85%. The remaining activity at 10 µM [9] was 83%, the remaining activity at 10 µM [10] was 101% and the remaining activity at 10 µM [11] was 101%. For the same compound, the remaining activity at 10 µM [12] was 67%, the remaining activity at 10 µM [13] was 70% and the remaining activity at 10 µM [14] was 93%. For the same compound, the remaining activity at 10 µM [15] was 47%, the Ki [15] was 1580 nM and the “Radioligand binding in 10 μM compound (% control)” value (“Radioligand binding … (% control)” for short) [16] was 118 % control. It also gave a remaining activity at 10 µM [17] of 86%, a remaining activity at 10 µM [18] of 102% and a remaining activity at 10 µM [19] of 79%. It also gave a remaining activity at 10 µM [20] of 98%, a remaining activity at 10 µM [21] of 85% and a remaining activity at 10 µM [22] of 73%. For the same compound, the remaining activity at 10 µM [23] was 88%, the remaining activity at 10 µM [24] was 108% and the “Radioligand binding … (% control)” value [25] was 70 % control. For the same compound, the remaining activity at 10 µM [26] was 76%, the remaining activity at 10 µM [27] was 32% and the Ki [27] was 1580 nM. For the same compound, the “receptors with >50% inhibition / receptors tested” value [28] was 4/44.

In the case of COc1ccc(OCC2c3cccn3CCN2C(=O)c2cccc(Cl)c2)cc1 (centres unmarked) [1180-420, (3-Chlorophenyl)(1-((4-methoxyphenoxy)methyl)-3,4-dihydropyrrolo[1,2-a]pyrazin-2(1H)-yl)methanone], the “% control response” value [1] is reported as 101.6 ± 1.3 % control response, the “% control response” value [2] is reported as 56.4 ± 5.3 % control response and the remaining activity at 10 µM [3] is reported as 95%. It also gave a remaining activity at 10 µM [4] of 112%, a remaining activity at 10 µM [5] of 113% and a remaining activity at 10 µM [6] of 116%. It also gave a remaining activity at 10 µM [7] of 95%, a remaining activity at 10 µM [8] of 75% and a remaining activity at 10 µM [9] of 115%. The remaining activity at 10 µM [10] was 87%, the remaining activity at 10 µM [11] was 90% and the remaining activity at 10 µM [12] was 37%. For the same compound, the Ki [12, 29] was 1260 nM, the remaining activity at 10 µM [13] was 75% and the remaining activity at 10 µM [14] was 89%. For the same compound, the remaining activity at 10 µM [15] was 32%, the Ki [15] was 1580 nM and the “Radioligand binding … (% control)” value [16] was 110 % control. It also gave a remaining activity at 10 µM [17] of 74%, a remaining activity at 10 µM [18] of 100% and a remaining activity at 10 µM [19] of 79%. For the same compound, the remaining activity at 10 µM [20] was 79%, the remaining activity at 10 µM [21] was 83% and the remaining activity at 10 µM [22] was 74%. The remaining activity at 10 µM [23] was 90%, the remaining activity at 10 µM [24] was 101% and the “Radioligand binding … (% control)” value [25] was 73 % control. It also gave a remaining activity at 10 µM [26] of 76%, a remaining activity at 10 µM [27] of 48% and a Ki [27] of 1580 nM. The “receptors with >50% inhibition / receptors tested” value [28] was 4/44.
